Measured values from patent publication US20090156518A1, “STABLE PHARMACEUTICAL COMPOSITION COMPRISING BETA-LACTAM ANTIBIOTIC AND BUFFER” (priority 2006, published 2009).
Marks after values point to notes of the source that are not given here.

Experiment: amounts of β-lactam antibiotic, β-lactamase inhibitor (C18 reverse-phase LC, UV-VIS) and aminoglycoside (HPLC-ELSD) in solution over time
Format: physicochemical

CC1(C)[C@H](C(=O)O)N2C(=O)C[C@H]2S1(=O)=O [Sulbactam sodium]
amount of component as percentage with respect to the amount at the initial time (Example 4: cefoperazone sodium 4 g, sulbactam sodium 0.5 g, gentamicin 80 mg, citrate pH 6.75, 200 mL water, room temperature, Time 0 h): 101.4% | amount of component as percentage with respect to the amount at the initial time (Example 4: cefoperazone sodium 4 g, sulbactam sodium 0.5 g, gentamicin 80 mg, citrate pH 6.75, 200 mL water, room temperature, Time 1 h): 101.4% | amount of component as percentage with respect to the amount at the initial time (Example 4: cefoperazone sodium 4 g, sulbactam sodium 0.5 g, gentamicin 80 mg, citrate pH 6.75, 200 mL water, room temperature, Time 2 h): 101.5% | amount of component as percentage with respect to the amount at the initial time (Example 4: cefoperazone sodium 4 g, sulbactam sodium 0.5 g, gentamicin 80 mg, citrate pH 6.75, 200 mL water, room temperature, Time 4 h): 109.7% | amount of component as percentage with respect to the amount at the initial time (Example 4: cefoperazone sodium 4 g, sulbactam sodium 0.5 g, gentamicin 80 mg, citrate pH 6.75, 200 mL water, room temperature, Time 6 h): 103.2% | amount of component as percentage with respect to the amount at the initial time (Example 5: freeze-dried cefoperazone sodium 4 g, sulbactam sodium 0.5 g, citrate pH 6.75, + amikacin sulfate 500 mg, 7 days 0° C., dissolved in 100 mL water, Time 0 h): 101.4% | amount of component as percentage with respect to the amount at the initial time (Example 5: freeze-dried cefoperazone sodium 4 g, sulbactam sodium 0.5 g, citrate pH 6.75, + amikacin sulfate 500 mg, 7 days 0° C., dissolved in 100 mL water, Time 1 h): 101.4% | amount of component as percentage with respect to the amount at the initial time (Example 5: freeze-dried cefoperazone sodium 4 g, sulbactam sodium 0.5 g, citrate pH 6.75, + amikacin sulfate 500 mg, 7 days 0° C., dissolved in 100 mL water, Time 2 h): 101.5% | amount of component as percentage with respect to the amount at the initial time (Example 5: freeze-dried cefoperazone sodium 4 g, sulbactam sodium 0.5 g, citrate pH 6.75, + amikacin sulfate 500 mg, 7 days 0° C., dissolved in 100 mL water, Time 4 h): 109.7% | amount of component as percentage with respect to the amount at the initial time (Example 5: freeze-dried cefoperazone sodium 4 g, sulbactam sodium 0.5 g, citrate pH 6.75, + amikacin sulfate 500 mg, 7 days 0° C., dissolved in 100 mL water, Time 6 h): 103.2% | amount of component as percentage with respect to the amount at the initial time (Example 6: freeze-dried cefoperazone sodium 4 g, sulbactam sodium 1 g, citrate pH 6.75, + etimicin sulfate 200 mg, 7 days 0° C., dissolved in 100 mL water, Time 0 h): 99.62% | amount of component as percentage with respect to the amount at the initial time (Example 6: freeze-dried cefoperazone sodium 4 g, sulbactam sodium 1 g, citrate pH 6.75, + etimicin sulfate 200 mg, 7 days 0° C., dissolved in 100 mL water, Time 1 h): 100.4% | amount of component as percentage with respect to the amount at the initial time (Example 6: freeze-dried cefoperazone sodium 4 g, sulbactam sodium 1 g, citrate pH 6.75, + etimicin sulfate 200 mg, 7 days 0° C., dissolved in 100 mL water, Time 2 h): 100.2% | amount of component as percentage with respect to the amount at the initial time (Example 6: freeze-dried cefoperazone sodium 4 g, sulbactam sodium 1 g, citrate pH 6.75, + etimicin sulfate 200 mg, 7 days 0° C., dissolved in 100 mL water, Time 4 h): 100.2% | amount of component as percentage with respect to the amount at the initial time (Example 7: ceftriaxone sodium 4 g, sulbactam sodium 1 g, gentamicin sulfate 80 mg, citrate pH 6.75, 200 mL water, room temperature (22° C.), Time 0 h): 96.84% | amount of component as percentage with respect to the amount at the initial time (Example 7: ceftriaxone sodium 4 g, sulbactam sodium 1 g, gentamicin sulfate 80 mg, citrate pH 6.75, 200 mL water, room temperature (22° C.), Time 1 h): 94.43% | amount of component as percentage with respect to the amount at the initial time (Example 7: ceftriaxone sodium 4 g, sulbactam sodium 1 g, gentamicin sulfate 80 mg, citrate pH 6.75, 200 mL water, room temperature (22° C.), Time 2 h): 93.35% | amount of component as percentage with respect to the amount at the initial time (Example 7: ceftriaxone sodium 4 g, sulbactam sodium 1 g, gentamicin sulfate 80 mg, citrate pH 6.75, 200 mL water, room temperature (22° C.), Time 4 h): 93.23% | amount of component as percentage with respect to the amount at the initial time (Example 7: ceftriaxone sodium 4 g, sulbactam sodium 1 g, gentamicin sulfate 80 mg, citrate pH 6.75, 200 mL water, room temperature (22° C.), Time 6 h): 92.13% | amount of component as percentage with respect to the amount at the initial time (Example 7: ceftriaxone sodium 4 g, sulbactam sodium 1 g, gentamicin sulfate 80 mg, citrate pH 6.75, 200 mL water, room temperature (22° C.), Time 8 h): 93.38% | amount of component as percentage with respect to the amount at the initial time (Example 10: mezlocillin sodium 2 g, sulbactam sodium 0.5 g, etimicin sulfate 200 mg, citrate pH 6.5, 200 mL water, room temperature, Time 0 h): 98.07% | amount of component as percentage with respect to the amount at the initial time (Example 10: mezlocillin sodium 2 g, sulbactam sodium 0.5 g, etimicin sulfate 200 mg, citrate pH 6.5, 200 mL water, room temperature, Time 1 h): 98.13% | amount of component as percentage with respect to the amount at the initial time (Example 10: mezlocillin sodium 2 g, sulbactam sodium 0.5 g, etimicin sulfate 200 mg, citrate pH 6.5, 200 mL water, room temperature, Time 2 h): 72.96% | amount of component as percentage with respect to the amount at the initial time (Example 10: mezlocillin sodium 2 g, sulbactam sodium 0.5 g, etimicin sulfate 200 mg, citrate pH 6.5, 200 mL water, room temperature, Time 4 h): 95.16% | amount of component as percentage with respect to the amount at the initial time (Example 10: mezlocillin sodium 2 g, sulbactam sodium 0.5 g, etimicin sulfate 200 mg, citrate pH 6.5, 200 mL water, room temperature, Time 6 h): 99.65% | amount of component as percentage with respect to the amount at the initial time (Example 10: mezlocillin sodium 2 g, sulbactam sodium 0.5 g, etimicin sulfate 200 mg, citrate pH 6.5, 200 mL water, room temperature, Time 8 h): 104.9% | amount of component as percentage with respect to the amount at the initial time (Example 11: freeze-dried mezlocillin sodium, sulbactam sodium, citrate pH 6.5, 7 days 0° C., in 100 mL 5% fructose + etimicin sulfate 200 mg, Time 0 h): 114.3% | amount of component as percentage with respect to the amount at the initial time (Example 11: freeze-dried mezlocillin sodium, sulbactam sodium, citrate pH 6.5, 7 days 0° C., in 100 mL 5% fructose + etimicin sulfate 200 mg, Time 1 h): 95.83% | amount of component as percentage with respect to the amount at the initial time (Example 11: freeze-dried mezlocillin sodium, sulbactam sodium, citrate pH 6.5, 7 days 0° C., in 100 mL 5% fructose + etimicin sulfate 200 mg, Time 2 h): 93.75% | amount of component as percentage with respect to the amount at the initial time (Example 11: freeze-dried mezlocillin sodium, sulbactam sodium, citrate pH 6.5, 7 days 0° C., in 100 mL 5% fructose + etimicin sulfate 200 mg, Time 4 h): 93.78% | amount of component as percentage with respect to the amount at the initial time (Example 11: freeze-dried mezlocillin sodium, sulbactam sodium, citrate pH 6.5, 7 days 0° C., in 100 mL 5% fructose + etimicin sulfate 200 mg, Time 6 h): 95.65% | amount of component as percentage with respect to the amount at the initial time (Example 11: freeze-dried mezlocillin sodium, sulbactam sodium, citrate pH 6.5, 7 days 0° C., in 100 mL 5% fructose + etimicin sulfate 200 mg, Time 8 h): 101.0% | amount of component as percentage with respect to the amount at the initial time (Example 14: freeze-dried cefoperazone sodium 4 g, sulbactam sodium 2 g, citrate pH 6.75, 7 days 0° C., in 100 mL water, 10 mL + gentamicin sulfate 16 mg, room temperature, Time 0 h): 92.44% | amount of component as percentage with respect to the amount at the initial time (Example 14: freeze-dried cefoperazone sodium 4 g, sulbactam sodium 2 g, citrate pH 6.75, 7 days 0° C., in 100 mL water, 10 mL + gentamicin sulfate 16 mg, room temperature, Time 1 h): 91.27% | amount of component as percentage with respect to the amount at the initial time (Example 14: freeze-dried cefoperazone sodium 4 g, sulbactam sodium 2 g, citrate pH 6.75, 7 days 0° C., in 100 mL water, 10 mL + gentamicin sulfate 16 mg, room temperature, Time 2 h): 90.78% | amount of component as percentage with respect to the amount at the initial time (Example 14: freeze-dried cefoperazone sodium 4 g, sulbactam sodium 2 g, citrate pH 6.75, 7 days 0° C., in 100 mL water, 10 mL + gentamicin sulfate 16 mg, room temperature, Time 4 h): 88.38* % | amount of component as percentage with respect to the amount at the initial time (Example 14: freeze-dried cefoperazone sodium 4 g, sulbactam sodium 2 g, citrate pH 6.75, 7 days 0° C., in 100 mL water, 10 mL + gentamicin sulfate 16 mg, room temperature, Time 6 h): 86.86* % | amount of component as percentage with respect to the amount at the initial time (Example 15: freeze-dried cefoperazone sodium 4 g, sulbactam sodium 4 g, citrate pH 6.75, 7 days 0° C., in 100 mL water, 10 mL + gentamicin sulfate 16 mg, room temperature, Time 0 h): 99.50% | amount of component as percentage with respect to the amount at the initial time (Example 15: freeze-dried cefoperazone sodium 4 g, sulbactam sodium 4 g, citrate pH 6.75, 7 days 0° C., in 100 mL water, 10 mL + gentamicin sulfate 16 mg, room temperature, Time 1 h): 96.28% | amount of component as percentage with respect to the amount at the initial time (Example 15: freeze-dried cefoperazone sodium 4 g, sulbactam sodium 4 g, citrate pH 6.75, 7 days 0° C., in 100 mL water, 10 mL + gentamicin sulfate 16 mg, room temperature, Time 2 h): 102.5% | amount of component as percentage with respect to the amount at the initial time (Example 15: freeze-dried cefoperazone sodium 4 g, sulbactam sodium 4 g, citrate pH 6.75, 7 days 0° C., in 100 mL water, 10 mL + gentamicin sulfate 16 mg, room temperature, Time 4 h): 95.78* % | amount of component as percentage with respect to the amount at the initial time (Example 15: freeze-dried cefoperazone sodium 4 g, sulbactam sodium 4 g, citrate pH 6.75, 7 days 0° C., in 100 mL water, 10 mL + gentamicin sulfate 16 mg, room temperature, Time 6 h): 70.74* % | amount of component as percentage with respect to the amount at the initial time (Example 17: freeze-dried cefoperazone sodium 4 g, sulbactam sodium 1 g, citrate pH 6.75, 7 days 0° C., in 100 mL water, 10 mL + amikacin sulfate 40 mg, room temperature, Time 0 h): 105.6% | amount of component as percentage with respect to the amount at the initial time (Example 17: freeze-dried cefoperazone sodium 4 g, sulbactam sodium 1 g, citrate pH 6.75, 7 days 0° C., in 100 mL water, 10 mL + amikacin sulfate 40 mg, room temperature, Time 1 h): 112.2% | amount of component as percentage with respect to the amount at the initial time (Example 17: freeze-dried cefoperazone sodium 4 g, sulbactam sodium 1 g, citrate pH 6.75, 7 days 0° C., in 100 mL water, 10 mL + amikacin sulfate 40 mg, room temperature, Time 2 h): 112.6% | amount of component as percentage with respect to the amount at the initial time (Example 17: freeze-dried cefoperazone sodium 4 g, sulbactam sodium 1 g, citrate pH 6.75, 7 days 0° C., in 100 mL water, 10 mL + amikacin sulfate 40 mg, room temperature, Time 4 h): 118.5% | amount of component as percentage with respect to the amount at the initial time (Example 17: freeze-dried cefoperazone sodium 4 g, sulbactam sodium 1 g, citrate pH 6.75, 7 days 0° C., in 100 mL water, 10 mL + amikacin sulfate 40 mg, room temperature, Time 6 h): 123.3% | amount of component as percentage with respect to the amount at the initial time (Example 17: freeze-dried cefoperazone sodium 4 g, sulbactam sodium 1 g, citrate pH 6.75, 7 days 0° C., in 100 mL water, 10 mL + amikacin sulfate 40 mg, room temperature, Time 8 h): 127.1% | amount of component as percentage with respect to the amount at the initial time (Example 19: ceftriaxone sodium 2 g, sulbactam sodium 2 g, gentamicin sulfate 160 mg, citrate pH 6.75, 200 mL water, room temperature, Time 0 h): 96.84% | amount of component as percentage with respect to the amount at the initial time (Example 19: ceftriaxone sodium 2 g, sulbactam sodium 2 g, gentamicin sulfate 160 mg, citrate pH 6.75, 200 mL water, room temperature, Time 1 h): 94.43% | amount of component as percentage with respect to the amount at the initial time (Example 19: ceftriaxone sodium 2 g, sulbactam sodium 2 g, gentamicin sulfate 160 mg, citrate pH 6.75, 200 mL water, room temperature, Time 2 h): 93.35% | amount of component as percentage with respect to the amount at the initial time (Example 19: ceftriaxone sodium 2 g, sulbactam sodium 2 g, gentamicin sulfate 160 mg, citrate pH 6.75, 200 mL water, room temperature, Time 4 h): 93.23% | amount of component as percentage with respect to the amount at the initial time (Example 19: ceftriaxone sodium 2 g, sulbactam sodium 2 g, gentamicin sulfate 160 mg, citrate pH 6.75, 200 mL water, room temperature, Time 6 h): 92.13% | amount of component as percentage with respect to the amount at the initial time (Example 19: ceftriaxone sodium 2 g, sulbactam sodium 2 g, gentamicin sulfate 160 mg, citrate pH 6.75, 200 mL water, room temperature, Time 8 h): 93.38%
